Measured values taken from US20160177395A1, “BIOMARKERS FOR THE PREDICTION OF RENAL INJURY” (priority 2007, published 2016).
Where “and” joins values, the source holds several entries; their conditions need not be identical. Equal entries are not always repeated. Entries after “also recorded” stand apart in the source; their conditions may differ.

Experiments:
[1] = tested on: kidney tissues of treated or untreated rats; test: Real-time qRT-PCR of marker transcripts in kidney tissue panel, discovery stage (Table 22); assay type: in vivo, rat; design: AI502869_DB71_seg0 normalized Real Time PCR expression: unit not given beside the values; conditions: rat kidney, listed as CadCl
Description: Before RT preparation the RNA was treated with DNA-free (Ambion, cat. No. AM1906) DNase treatment and removal—according to manufacturer protocol. DNase procedure was repeated until no DNA is detected in a PCR reaction using the RNA samples.
The mixture is then incubated for 5 min at 65° C. and then quickly chilled on ice. Thereafter, 20 μl of 5× SuperscriptII first strand buffer (Invitrogen, Cat. No. Y00146), 9.6 μl 0.1M DTT (Invitrogen, Cat. No. Y00147) and 160 units RNasin (Promega, Cat. No. N251A) are added, and the mixture is incubated for 10 min at 25° C., followed by further incubation at 42° C. for 2 min. […] The resulting cDNA is diluted 1:20 in TE buffer (10 mM Tris pH=8, 1 mM EDTA pH=8).
cDNA (5 μl), prepared as described above, is used as a template in Real-Time PCR reactions using the SYBR Green I assay (PE Applied Biosystem) with specific primers in 100 nM concentration if not indicated otherwise and UNG Enzyme (Eurogentech or equal) Amplification is effected as follows: 50° C. for 2 min, 95° C. for 10 min, and then 40 cycles of 95° C. for 15 sec, followed by 60° C. for 1 min (if not indicated otherwise). Amplification step is followed by dissociation step. Detection is performed by using the PE Applied Biosystem SDS 7000. The cycle in which the reactions achieved a threshold level (Ct) of fluorescence is registered and is used to calculate the relative transcript quantity in the RT reactions. Non-detected samples are assigned Ct value of 41 and are calculated accordingly. The relative quantity is calculated using the equation Q=efficiencŷ-Ct. The efficiency of the PCR reaction is calculated from a standard curve, created by using serial dilutions of several reverse transcription (RT) reactions. To minimize inherent differences in the RT reaction, the resulting relative quantities are normalized to normalization factor calculated as follows: […]
The relative quantity (Q) of each housekeeping gene in each sample is calculated as described above. In order to calculate the “relative Q relative to MED” each Q for each HSKP gene is divided by the median quantity of this gene in all panel samples. To finally achieve the normalization factor of each sample the geometric mean of all four “relative Q relative to MED” was calculated. The normalization factor was then used for further calculations.
The markers of the present invention were tested with regard to their expression in a panel of kidney tissues samples from treated and control rats. Unless otherwise noted, all experimental data relates to the novel polynucleotides and proteins of the present invention, named according to the segment being tested (as expression was tested through RT-PCR as described). Tests were then performed as described in the “Materials and Experimental Procedures” section above.
The qRT-PCR measurements were normalized according to each samples normalization factor as described in “RT Preparation and Real-Time qRT-PCR Analysis” and further multiplied by a constant factor for ease of viewing.

[2] = tested on: Sprague-Dawley Crl:CD(SD) rats; test: Rat toxicity study, single, 5-day and 28-day treatment (clinical observation, clinical pathology, autopsy, organ weights, histopathology);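 also: control rats received saline intraperitoneally, and the organs examined were adrenals, brain, kidneys, liver, spleen and thymus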
Description: Control animals were treated intraperitoneal with saline.
Randomization and group allocation: prior to treatment, the animals were assigned to the experimental groups based on their body weight. Mean body weight of each group at randomization was not deviate±20% of the mean population weight. Males and females were randomized separately. For the randomization, a computer program was used.
The day before autopsy, urinalysis was performed and blood samples were taken for hematology and clinical chemistry examinations.
On the day of autopsy the animals were anaesthetized with isoflurane, blood was collected for PBMC isolation then subjected to autopsy. Tissues and organs (adrenals, brain, kidneys, liver, spleen and thymus) were weighed and subjected to gross pathological and histopathological examinations.

[3] = day5, individual animals (F and M)
[4] = day28, individual animals (F and M)
[5] = 5-day treatment, compared with controls

With `[Cl][Cd][Cl]` [Cadmium chloride] the “W41270_DB81_seg11 normalized Real Time PCR” value [1, 3] was 2.49 and 1.17 and 1.02 and 1.43 and 1.52, the “W64472_DB81_seg2 normalized Real Time PCR” value [1, 3] was 1.65 and 0.78 and 2.23 and 1.89 and 1.63 and the “W83813_DB81_seg27 normalized Real Time PCR” value [1, 3] was 3.79 and 1.59 and 1.48 and 1.67 and 1.76. For the same molecule, the “AA686189_DB71_seg6 normalized Real Time PCR expression” value ([1]; day5, individual animals) was 0.47 and 0.29 and 0.39 and 0.5 and 0.38, the “AA799594_DB71_seg0 normalized Real Time PCR expression” value ([1]; day5, individual animals) was 1.12 and 0.9 and 1.23 and 0.98 and 1.01 and the “AA964541_DB71_seg0 normalized Real Time PCR expression” value ([1]; day5, individual animals) was 0.29 and 0.27 and 0.42 (2×) and 0.41. For the same molecule, the “AI045075_DB71_seg6 normalized Real Time PCR expression” value ([1]; day5, individual animals) was 0.98 and 0.49 and 0.85 and 0.81 and 0.83, the “AI454051_DB71_seg0 normalized Real Time PCR expression” value ([1]; day5, individual animals) was 1.54 and 1.35 and 0.84 and 0.68 and 0.92 and the “AI502869_DB71_seg0 normalized Real Time PCR expression” value ([1]; day5, individual animals) was 0.94 and 0.73 and 0.69 and 0.68 and 0.85. The “AW919147_DB71_seg0 normalized Real Time PCR expression” value ([1]; day5, individual animals) was 1.06 and 1.86 and 1.3 and 0.94 and 1, the “BI293562_DB71_seg2 normalized Real Time PCR expression” value ([1]; day5, individual animals) was 0.43 and 0.63 and 0.48 and 0.88 and 0.78 and the “H31045_DB71_seg5 normalized Real Time PCR expression” value ([1]; day5, individual animals) was 0.56 and 0.32 and 0.42 and 0.4 and 0.46. For the same molecule, the “H31799_DB71_seg23 normalized Real Time PCR expression” value ([1]; day5, individual animals) was 0.83 and 0.99 and 1.17 and 0.98 and 0.94, the “H31883_DB71_seg13 normalized Real Time PCR expression” value ([1]; day5, individual animals) was 0.87 and 0.86 and 0.83 and 0.78 and 0.64 and the “H33998_DB71_seg19 normalized Real Time PCR” value [1, 4] was 1.26 and 0.59 and 0.43 and 0.45 and 0.26 and 0.41. For the same molecule, the “MUSCYCG1R_DB81_seg15-17 normalized Real Time PCR” value [1, 4] was 0.88 and 0.71 and 0.65 and 0.72 and 0.44 and 0.58, the “RATLRFI_DB71_seg9 normalized Real Time PCR” value [1, 4] was 0.66 and 0.85 and 1.78 and 0.28 and 0.67 and 0.56 and the “RATRAB13X_DB71_seg11-13 normalized Real Time PCR” value [1, 4] was 1.37 and 0.92 and 0.96 and 1.11 and 1.08 and 0.88. The “RNU24174_DB71_seg8 normalized Real Time PCR” value [1, 4] was 0.21 and 0.45 and 1.21 and 0.25 (2×) and 0.39, the “W41270_DB81_seg11 normalized Real Time PCR” value [1, 4] was 0.86 and 0.55 and 0.83 and 0.33 and 0.27 and 0.39 and the “W64472_DB81_seg2 normalized Real Time PCR” value [1, 4] was 0.89 and 0.55 and 0.43 and 0.67 and 0.47 and 0.57. For the same molecule, the “W83813_DB81_seg27 normalized Real Time PCR” value [1, 4] was 0.95 and 0.64 and 0.46 (2×) and 0.34 and 0.53, the “AA686189_DB71_seg6 normalized Real Time PCR expression” value ([1]; day28, individual animals) was 0.64 and 0.58 and 1.94 and 0.4 and 0.51 and 0.82 and the “AA799594_DB71_seg0 normalized Real Time PCR expression” value ([1]; day28, individual animals) was 1.14 and 0.88 and 0.37 and 0.66 and 0.77 and 0.83. The “AA964541_DB71_seg0 normalized Real Time PCR expression” value ([1]; day28, individual animals) was 0.32 (2×) and 0.42 and 1.72 and 0.55 and 0.72, the “AI045075_DB71_seg6 normalized Real Time PCR expression” value ([1]; day28, individual animals) was 1.72 and 1.15 and 0.86 and 0.75 and 0.63 and 0.71 and the “AI454051_DB71_seg0 normalized Real Time PCR expression” value ([1]; day28, individual animals) was 0.79 and 1.05 and 0.54 and 1.29 and 1.31 and 0.75. The “AI502869_DB71_seg0 normalized Real Time PCR expression” value ([1]; day28, individual animals) was 0.73 and 1.22 and 0.44 and 2.47 and 2.93 and 1.18, the “AW919147_DB71_seg0 normalized Real Time PCR expression” value ([1]; day28, individual animals) was 0.77 and 0.91 and 0.42 and 1.31 and 1.18 and 0.68 and the “BI293562_DB71_seg2 normalized Real Time PCR expression” value ([1]; day28, individual animals) was 0.4 and 0.81 and 2.59 and 0.72 and 1.35 and 0.31. For the same molecule, the “H31045_DB71_seg5 normalized Real Time PCR expression” value ([1]; day28, individual animals) was 2.88 and 0.83 and 0.57 and 2.23 and 2.41 and 2, the “H31799_DB71_seg23 normalized Real Time PCR expression” value ([1]; day28, individual animals) was 1.59 and 0.94 and 0.67 and 1.05 and 1.02 and 0.76 and the “H31883_DB71_seg13 normalized Real Time PCR expression” value ([1]; day28, individual animals) was 0.97 and 1.02 and 0.86 (2×) and 0.95 and 0.8. The Autopsy findings ([2]; 5-day treatment) was “No effect”, the Body weight gain ([2]; 5-day treatment) was “Body weight gain decreased in both sexes; also recorded: Decreased body weight gain was recorded in males” and the Clinical pathology ([2]; 5-day treatment) was “Slightly increased Gamma GT values were recorded in females; also recorded: ♀: ↑ γGT”. For the same molecule, the Clinical symptoms ([2]; 5-day treatment) was “mild clinical symptoms (hollow psoas, colic) immediately after the administration”, the “Histopathology / renal damage” value ([2]; 5-day treatment) was “No renal damage was found” and the Organ weight [2, 5] was “Lower thymus weights”. For the same molecule, the Water consumption [2, 5] was “Decrease in Tobramycin and Cadmium chloride treated females”, the “Body weight and body weight gain” value ([2]; 28-day treatment) was “affected body weight gain in both sexes; also recorded: Effect on body weight and body weight gain was seen” and the Clinical symptoms ([2]; 28-day treatment) was “Mild clinical symptoms (hollow psoas, colic) were recorded in both sexes; also recorded: Clinical symptoms were observed”. For the same molecule, the Histopathology / nephrotoxicity ([2]; 28-day treatment) was “significant nephrotoxicity was found only in a single female; also recorded: ♂: lymphoid depletion”, the Water consumption ([2]; 28-day treatment) was “Slightly lower water consumption was recorded in males” and the Clinical pathology ([2]; 28-day treatment, blood and urine) was “AST (Aspartate Aminotransferase) values were elevated in both sexes; also recorded: A few transitional epithelial cells were observed in the urine of females; also recorded: ♀: trans. epith”. For the same molecule, the “Water consumption, males” value ([2]; 28-day treatment, compared with controls) was “Sight decrease during the last week”, the “Decreasing order of nephrotoxicity at histopathological examination” value ([2]; 28-day treatment, females) was “Cisplatin, Cadmium chloride, Gentamycin, Doxorubicin and Tobramycin in females” and the Autopsy findings ([2]; 28-day treatment, male and female rats) was “Round bordered spleen and liver and thickening of peritoneum were recorded in both sexes; also recorded: Pale and enlarged kidneys were found in a single female; also recorded: Round bordered liver, enlarged spleen and thickening of the peritoneum were found in both sexes”. For the same molecule, the Organ weight ([2]; 28-day treatment, male and female rats, compared with controls) was “higher liver and spleen weight; also recorded: increased weight of kidneys and decreased thymus were recorded in females; also recorded: Increased liver weights in groups of both sexes; also recorded: Higher weights of kidneys in females; also recorded: Weights of spleen were higher in Gentamycin treated males and Cadmium chloride treated groups of both sexes; also recorded: Decreased thymus weights”, the Clinical symptoms ([2]; single and 5-day treatment) was “Clinical symptoms were observed only in Cadmium chloride groups of both sexes” and the Body weight gain ([2]; single treatment) was “Decreased body weight gain was recorded in both sexes”. For the same molecule, the Clinical pathology ([2]; single treatment) was “Lower lymphocytes and increased neutrophils counts were found in males” and the Clinical symptoms ([2]; single treatment) was “Mild clinical symptoms (hollow psoas, colic) were observed in both sexes”.
